Test results taken from US20130116287A1 (priority 2010, published 2013).
Several values for one entry are separate records, joined by “and”; a condition that tells them apart may be missing. Identical values can stand only once.

Assays:
Phytophthora infestans = format: in vivo; conditions: 500 ppm of active ingredient; tomato, preventive; evaluated 7 days after inoculation; 100% = no disease
[1] = Measurement of logP values by HPLC on reversed phase columns (EEC directive 79/831 Annex V.A8); format: physicochemical; conditions: HPLC; for Log P [I1] main isomer / Log P [I2] minor isomer / Log P (two values printed, isomers not assigned): pH 2.7, 0.1% formic acid; for Log P (two values printed, isomers not assigned): two values without isomer tag; for Log P: pH 2.7, 0.1% formic acid in water / acetonitrile, single value

| Compound | efficacy (Phytophthora infestans) | Log P [I1] main isomer [1] | Log P [I2] minor isomer [1] | Log P (two values printed, isomers not assigned) [1] | Log P [1] |
| --- | --- | --- | --- | --- | --- |
| Cc1snnc1C(=NOCc1csc(NC(=O)C(F)(F)Oc2ccccc2)n1)c1ccccc1 (mixture of isomers) [Example 1] | 100% | 4.25 | 4.15 | – | – |
| Cc1snnc1C(=NOCc1csc(NC(=O)CSc2ccccc2)n1)c1ccccc1 (mixture of isomers) [Example 5] | 95% | 3.89 | 3.78 | – | – |
| Cc1snnc1C(=NOCc1cccc(NC(=O)COc2ccccc2)n1)c1ccccc1 (mixture of isomers) [Example 9] | 95% | 4.14 | 4.01 | – | – |
| CC(=O)OCC(=O)Nc1nc(CON=C(c2ccccc2)c2nnsc2C)cs1 (mixture of isomers) [Example 11] | – | 2.78 | 2.68 | – | – |
| CC(=O)OCC(=O)Nc1cccc(CON=C(c2ccccc2)c2nnsc2C)n1 (mixture of isomers) [Example 12] | 70% | 2.93 | 2.82 | – | – |
| Cc1snnc1C(=NOCc1cccc(NC(=O)COCc2ccccc2)n1)c1ccccc1 (mixture of isomers) [Example 29] | 93% | 4.34 | – | – | – |
| Cc1snnc1C(=NOCc1csc(NC(=O)COc2ccccc2Cl)n1)c1ccccc1 (mixture of isomers) [Example 31] | 95% | 4.19 | 4.06 | – | – |
| Cc1snnc1C(=NOCc1cccc(NC(=O)COc2ccccc2Cl)n1)c1ccccc1 (mixture of isomers) [Example 32] | 93% | 4.61 | 4.49 | – | – |
| Cc1snnc1C(=NOCc1csc(NC(=O)COc2ccc(Cl)cc2)n1)c1ccccc1 (mixture of isomers) [Example 33] | 100% | – | – | 4.09 | – |
| Cc1snnc1C(=NOCc1cccc(NC(=O)COc2ccc(Cl)cc2)n1)c1ccccc1 (mixture of isomers) [Example 35] | 95% | 4.51 | – | – | – |
| Cc1snnc1C(=NOCc1csc(NC(=O)COc2cccc(Cl)c2)n1)c1ccccc1 (mixture of isomers) [Example 41] | 100% | – | – | 4.24 and 4.11 | – |
| Cc1snnc1C(=NOCc1cccc(NC(=O)COc2cccc(Cl)c2)n1)c1ccccc1 (mixture of isomers) [Example 43] | – | 4.53 | 4.41 | – | – |
| COc1ccccc1OCC(=O)Nc1cccc(CON=C(c2ccccc2)c2nnsc2C)n1 (mixture of isomers) [Example 58] | 95% | 4.24 | 4.11 | – | – |
| CC(=O)OC(C)(C)C(=O)Nc1nc(CON=C(c2ccccc2)c2nnsc2C)cs1 (mixture of isomers) [Example 100] | 95% | 3.35 | 3.25 | – | – |
| CC(=O)OC(C)(C)C(=O)Nc1cccc(CON=C(c2ccccc2)c2nnsc2C)n1 (mixture of isomers) [Example 101] | 95% | 3.48 | 3.35 | – | – |
| Cc1snnc1C(=NOCc1cccc(NC(=O)COCCC(C)C)n1)c1ccccc1 [Example 4] | 93% | – | – | – | – |
| Cc1snnc1C(=NOCc1cccc(NC(=O)COc2ccccc2)n1)c1ccccc1 [Example 10] | 98% | – | – | – | 4.11 |
| C#CCOC(C)C(=O)Nc1nc(CON=C(c2ccccc2)c2nnsc2C)cs1 (centres unmarked) [Example 13] | 100% | – | – | – | 3.29 |
| C#CCOC(C)C(=O)Nc1cccc(CON=C(c2ccccc2)c2nnsc2C)n1 (centres unmarked) [Example 14] | 100% | – | – | – | 3.58 |
| Cc1snnc1C(=NOCc1cccc(NC(=O)C(C)Oc2ccccc2)n1)c1ccccc1 (centres unmarked) [Example 16] | 100% | – | – | – | 4.41 |
| Cc1snnc1C(=NOCc1csc(NC(=O)COCC2CC2)n1)c1ccccc1 [Example 17] | 97% | – | – | – | 3.53 |

| Compound | efficacy (Phytophthora infestans) | Log P [I1] main isomer [1] | Log P [I2] minor isomer [1] | Log P (two values printed, isomers not assigned) [1] | Log P [1] |
| --- | --- | --- | --- | --- | --- |
| Cc1snnc1C(=NOCc1cccc(NC(=O)COCC2CC2)n1)c1ccccc1 [Example 18] | 100% | – | – | – | 3.92 |
| C=CCCOC(C)C(=O)Nc1nc(CON=C(c2ccccc2)c2nnsc2C)cs1 (centres unmarked) [Example 19] | 98% | – | – | – | 3.99 |
| C=CCCOC(C)C(=O)Nc1cccc(CON=C(c2ccccc2)c2nnsc2C)n1 (centres unmarked) [Example 20] | 95% | – | – | – | 4.36 |
| CCCCOCC(=O)Nc1nc(CON=C(c2ccccc2)c2nnsc2C)cs1 [Example 21] | 93% | – | – | – | 3.99 |
| CCCCOCC(=O)Nc1cccc(CON=C(c2ccccc2)c2nnsc2C)n1 [Example 22] | 95% | – | – | – | 4.41 |
| Cc1snnc1C(=NOCc1cccc(NC(=O)COC2CCCC2)n1)c1ccccc1 [Example 24] | 95% | – | – | – | 4.51 |
| C=CCOC(C)C(=O)Nc1cccc(CON=C(c2ccccc2)c2nnsc2C)n1 (centres unmarked) [Example 26] | 95% | – | – | – | 3.94 |
| Cc1snnc1C(=NOCc1cccc(NC(=O)COCc2ccccc2)n1)c1ccccc1 [Example 30] | 95% | – | – | – | 4.29 |
| Cc1snnc1C(=NOCc1csc(NC(=O)COc2ccc(Cl)cc2)n1)c1ccccc1 [Example 34] | 100% | – | – | – | 4.19 |
| Cc1snnc1C(=NOCc1cccc(NC(=O)COc2ccc(Cl)cc2)n1)c1ccccc1 [Example 36] | 100% | – | – | – | 4.49 |
| C=CCCOCC(=O)Nc1nc(CON=C(c2ccccc2)c2nnsc2C)cs1 [Example 37] | 98% | – | – | – | 3.68 |
| C=CCCOCC(=O)Nc1cccc(CON=C(c2ccccc2)c2nnsc2C)n1 [Example 38] | 100% | – | – | – | 3.99 |
| Cc1snnc1C(=NOCc1cccc(NC(=O)C(C)OCC2CC2)n1)c1ccccc1 (centres unmarked) [Example 40] | 97% | – | – | – | – |
| Cc1snnc1C(=NOCc1csc(NC(=O)COc2cccc(Cl)c2)n1)c1ccccc1 [Example 42] | 100% | – | – | – | 4.19 |
| Cc1snnc1C(=NOCc1csc(NC(=O)COc2ccc(I)cc2)n1)c1ccccc1 [Example 45] | 100% | – | – | – | 4.44 |
| Cc1snnc1C(=NOCc1cccc(NC(=O)COc2ccc(I)cc2)n1)c1ccccc1 [Example 46] | 100% | – | – | – | – |
| C#CCOCC(=O)Nc1nc(CON=C(c2ccccc2)c2nnsc2C)cs1 [Example 47] | 95% | – | – | – | 3.04 |
| C#CCOCC(=O)Nc1cccc(CON=C(c2ccccc2)c2nnsc2C)n1 [Example 48] | 100% | – | – | – | 3.29 |
| Cc1snnc1C(=NOCc1csc(NC(=O)C(C)OCCC(C)C)n1)c1ccccc1 (centres unmarked) [Example 49] | 98% | – | – | – | 4.68 |
| Cc1snnc1C(=NOCc1cccc(NC(=O)C(C)OCCC(C)C)n1)c1ccccc1 (centres unmarked) [Example 50] | 97% | – | – | – | 5.11 |
| Cc1snnc1C(=NOCc1csc(NC(=O)CSCCc2ccccc2)n1)c1ccccc1 [Example 51] | – | – | – | – | 4.24 |

| Compound | efficacy (Phytophthora infestans) | Log P [I1] main isomer [1] | Log P [I2] minor isomer [1] | Log P (two values printed, isomers not assigned) [1] | Log P [1] |
| --- | --- | --- | --- | --- | --- |
| Cc1snnc1C(=NOCc1cccc(NC(=O)CSCCc2ccccc2)n1)c1ccccc1 [Example 52] | 97% | – | – | – | 4.53 |
| Cc1snnc1C(=NOCc1cccc(NC(=O)COCC2CCC2)n1)c1ccccc1 [Example 54] | 97% | – | – | – | 4.54 |
| Cc1snnc1C(=NOCc1csc(NC(=O)C(C)OC2CCCCC2)n1)c1ccccc1 (centres unmarked) [Example 55] | 98% | – | – | – | 4.76 |
| Cc1snnc1C(=NOCc1cccc(NC(=O)C(C)OC2CCCCC2)n1)c1ccccc1 (centres unmarked) [Example 56] | 98% | – | – | – | 5.22 |
| Cc1snnc1C(=NOCc1cccc(NC(=O)COC2CCCCC2)n1)c1ccccc1 [Example 60] | 95% | – | – | – | 4.91 |
| CCOC(C)(C)C(=O)Nc1nc(CON=C(c2ccccc2)c2nnsc2C)cs1 [Example 61] | 100% | – | – | – | 3.94 |
| CCOC(C)(C)C(=O)Nc1cccc(CON=C(c2ccccc2)c2nnsc2C)n1 [Example 62] | 95% | – | – | – | 4.34 |
| Cc1snnc1C(=NOCc1cccc(NC(=O)COCC(C)C)n1)c1ccccc1 [Example 64] | 98% | – | – | – | 4.44 |
| Cc1snnc1C(=NOCc1cccc(NC(=O)COC(C)C)n1)c1ccccc1 [Example 66] | 93% | – | – | – | 3.94 |
| Cc1snnc1C(=NOCc1csc(NC(=O)CSCCC(C)C)n1)c1ccccc1 [Example 67] | 95% | – | – | – | 4.41 |
| Cc1snnc1C(=NOCc1cccc(NC(=O)CSCCC(C)C)n1)c1ccccc1 [Example 68] | 95% | – | – | – | – |
| Cc1snnc1C(=NOCc1csc(NC(=O)COCC2CCCCC2)n1)c1ccccc1 [Example 69] | 97% | – | – | – | 4.93 |
| Cc1snnc1C(=NOCc1cccc(NC(=O)COCC2CCCCC2)n1)c1ccccc1 [Example 70] | 89% | – | – | – | 5.45 |
| Cc1snnc1C(=NOCc1csc(NC(=O)COCC2CCCCO2)n1)c1ccccc1 (centres unmarked) [Example 71] | 90% | – | – | – | 3.76 |
| Cc1snnc1C(=NOCc1cccc(NC(=O)COCC2CCCCO2)n1)c1ccccc1 (centres unmarked) [Example 72] | 75% | – | – | – | 3.92 |
| Cc1snnc1C(=NOCc1cccc(NC(=O)C(C)Oc2ccc(F)cc2)n1)c1ccccc1 (centres unmarked) [Example 96] | 97% | – | – | – | – |
| CCCCOC(C)C(=O)Nc1cccc(CON=C(c2ccccc2)c2nnsc2C)n1 (centres unmarked) [Example 97] | 97% | – | – | – | – |
| Cc1snnc1C(=NOCc1csc(NC(=O)C(C)OCC2CCC2)n1)c1ccccc1 (centres unmarked) [Example 110] | – | – | – | – | 4.49 |
| Cc1snnc1C(=NOCc1cccc(NC(=O)C(C)OCC2CCC2)n1)c1ccccc1 (centres unmarked) [Example 111] | – | – | – | – | 4.93 |
